A short description of the data set: in vitro absorption of foam/gas in fresh human venous blood. The note with it: 0.5 ml aliquot in 20 ml stirred blood. The data set is classed as in vitro ADME. The method, then:
In vitro experiments were conducted to determine the absorption of foam made with different gases in fresh human venous blood.
A 20 ml polypropylene syringe barrel was prepared by puncturing its side wall with a relatively large hypodermic needle to make a hole approximately 1 mm in diameter. This hole was then covered by securing a piece of clear flexible vinyl sheet over it with clear adhesive tape. A small magnetic stirrer element was introduced into the syringe barrel and the plunger then replaced. 20 ml of human venous blood was then with withdrawn in the usual manner from a human subject using the specially prepared syringe fitted with a hypodermic needle.
The hypodermic needle was removed and the syringe then placed on a magnetic stirrer unit so that the magnetic element in the syringe thoroughly agitated the blood. […]
The needle of the 0.5 ml syringe was then introduced through the vinyl sheet on the side wall of the 20 ml syringe. […] It was determined that a distance of 45 intervals on this scale corresponded to an internal volume of in the manometer tubing of approximately 0.5 ml. […]
In this experiment, the air foam test was only observed for a few minutes after tF. However, further experiments have been conducted by the inventors, the results of which are not formally recorded here, involving foam with a percentage of nitrogen. […]

In the case of `O=O` [Oxygen gas, oxygen], the “Absorbed volume at tF” value stood at 0.46 mL and the “tF (time until blood column stopped moving)” value is 140 s.

Values taken from patent US7763269B2, “Therapeutic foam” (BTG International Ltd., priority 2003, dated 2010).
